From US20230121313A1 (priority 2019, published 2023)
Where a name gives a salt, the structure may show the parent alone.

Key:
[1] = tested on: subjects with MDD at imminent risk for suicide; experiment: Beck Scale for Suicidal Ideation (BSS), Study […]2001; type: in vivo, human; conditions: 84 mg; for BSS total score change, Diff. of LS Means (minus Placebo): ANCOVA LOCF; for BSS total score, change from baseline, mean / BSS total score, change from baseline, median / BSS total score, mean / BSS total score, median: LOCF, N 34
Description: • a. Changes from baseline to Day 2 and Day 25 for the MADRS total score • b. Changes from baseline to Day 1 4-hours postdose, Day 2 and Day 25 for the MADRS Suicide Item • c. Changes from baseline to Day 1 4-hours postdose, Day 2, and Day 25 for the clinical global judgment of suicide risk from the Suicide Ideation and Behavior Assessment Tool (SIBAT) • d. Sustained response (Onset of Clinical Response) defined as at least 50% reduction from baseline in MADRS total score with onset on Day 1 that is maintained through the end of the double-blind phase (Day 25) • e. Changes from baseline to Day 1 4-hours postdose, Day 2, and Day 25 for the Beck Scale for Suicidal Ideation (BSS) • f. Changes from baseline to Day 1 4-hours postdose and Day 25 for the Beck Hopelessness Scale
The BSS is a 21-item self-reported instrument to detect and measure the severity of suicidal ideation in adults and adolescents aged 17 years and older. The BSS total score represents the severity of suicide ideation, and it is calculated by summing the ratings of the first 19 items; the total score ranges from 0 to 38, with a higher score representing greater suicide ideation. Increasing scores reflect increases in suicidal risk.

[2] = tested on: subjects with MDD at imminent risk for suicide; conditions: human, in vivo, other: intranasal, 84 mg
Protocol: Transient blood pressure increases peaked for the esketamine group at approximately 40 minutes post dose with the maximum mean increases (across all dosing days) in systolic BP being 8.7 in the placebo group and 16.7 in the esketamine 84 mg group. The maximum mean increases (across all dosing days) in diastolic BP were 7.6 in the placebo group and 11.9 in the esketamine 84 mg group. […] See, FIGS. 46 and 47.

[3] = tested on: elderly subjects with TRD; experiment: MADRS total score, Study […]3005 (change, response, remission); type: in vivo, human
Protocol: The primary objective of this study was to evaluate the efficacy of switching elderly subjects with treatment-resistant depression (TRD) from a prior antidepressant treatment (to which they have not responded) to flexibly dosed intranasal esketamine (28 mg, 56 mg or 84 mg) plus a newly initiated oral antidepressant compared with switching to a newly initiated oral antidepressant plus intranasal placebo, in improving depressive symptoms, as assessed by the change from baseline in the Montgomery-Asberg Depression Rating Scale (MADRS) total score from Day 1 (pre-randomization) to the end of the 4-week double-blind induction phase.
Primary Efficacy Evaluation: The primary efficacy evaluation is described in Example 1. Key Secondary Efficacy Evaluation (Clinician-completed): The key secondary efficacy evaluation (clinician-completed) is described in Example 1. Key Secondary Efficacy Evaluation (Patient-reported Outcome): The key secondary efficacy evaluation (patient-reported outcome) is described in Example 1. Primary Endpoint: The primary efficacy endpoint is described in Example 1. Primary Endpoint Results: The primary endpoint results are the same as described in Example 1. See, Table 34 and FIG. 19.
As specified in the SAP, the weighted combination test was the primary analysis for the primary efficacy endpoint since an interim analysis for sample size re-estimation was conducted. A post-hoc analysis using an unweighted MMRM analysis (essentially disregarding the interim analysis) was performed and the one-sided p-value was 0.018 using this approach. The post-hoc one-sided p-value was 0.017 using the unweighted ANCOVA analysis.
Response (≥50% improvement from baseline in the MADRS total score) and Remission (MADRS total score is ≤12) rates are presented in Table 35.
For the clinician-rated assessments, MADRS was administered at baseline and days 8, 15, 22 and 28. MADRS scores were obtained remotely by telephone by independent raters blinded to subject's treatment response. Similarly, the Clinical Global Impressions-Severity (CGI-S) scale was administered at baseline; days 4, 8, 11, 15, 18, 22, 25; and at the 4-week double-blind end point.
For the MADRS, PHQ-9, and SDS total scores, the test for treatment effect was based on mixed model for repeated measures (MMRM) on observed case data with change from baseline as the response variable and the fixed effect model terms for treatment (ESK+AD, AD+PBO), day, class of oral AD (SNRI or SSRI), and treatment-by-day, and baseline value as a covariate. […]
Efficacy was determined by measuring MADRS total scores, SDS scores, PHQ-9 scores and CGI-S scores. […]

[4] = Solubility of esketamine HCl; conditions: for solubility: pH 4.5, aqueous buffer
Protocol: The clinical investigational product is an aqueous solution of the drug substance, esketamine hydrochloride (HCl). This formulation is administered intranasally to patients using a dual nasal spray device, which delivers one spray into each nostril. […] The formulation was stored at 37° C. for stability reasons until dosing.

SMILES: CN[C@]1(c2ccccc2Cl)CCCCC1=O [esketamine, (S)-2-(2-chlorophenyl)-2-(methylamino)cyclohexanone]
- BSS total score change, Diff. of LS Means (minus Placebo) ([1]; Day 1 (DB): 4 H): −2.3
- BSS total score, change from baseline, mean ([1]; Day 1 (DB): 4 H): −10.2
- BSS total score, change from baseline, median ([1]; Day 1 (DB): 4 H): −8.0
- BSS total score, mean ([1]; Day 1 (DB): 4 H): 13.8
- BSS total score, median ([1]; Day 1 (DB): 4 H): 16.5
- BSS total score change, Diff. of LS Means (minus Placebo) ([1]; Day 2 (DB)): −1.9
- BSS total score, change from baseline, mean ([1]; Day 2 (DB)): −12.9
- BSS total score, change from baseline, median ([1]; Day 2 (DB)): −11.5
- BSS total score, mean ([1]; Day 2 (DB)): 11.1
- BSS total score, median ([1]; Day 2 (DB)): 13.0
- BSS total score change, Diff. of LS Means (minus Placebo) ([1]; End Point (DB)): −1.7
- BSS total score, change from baseline, mean ([1]; End Point (DB)): −19.3
- BSS total score, change from baseline, median ([1]; End Point (DB)): −21.0
- BSS total score, mean ([1]; End Point (DB)): 4.7
- BSS total score, median ([1]; End Point (DB)): 0.0
- BSS total score change vs placebo ([1]; […]2001, Day 1: 4 hours postdose, Day 2 (DB), End Point (DB)): no statistically significant differences
- Blood pressure returning to normal range by (post dose) [2]: ≤ 2 h
- Maximum mean increase in diastolic BP (across all dosing days) ([2]; 40 minutes): 11.9
- Maximum mean increase in systolic BP (across all dosing days) ([2]; 40 minutes): 16.7
- MADRS total score: difference in LS mean change (SE), MMRM ([3]; Day 28, subjects aged 65-74): −4.9 (2.04)
- MADRS total score: difference in LS mean change (SE), MMRM ([3]; Day 28, subjects aged 75 and above): −0.4 (5.02)
- MADRS total score: LS mean (SE) treatment difference ([3]; Stage 1 (enrolled before interim analysis)): −1.6 (2.62)
- MADRS total score: LS mean (SE) treatment difference ([3]; Stage 2 (enrolled after interim analysis)): −5.6 (2.63)

SMILES: CN[C@]1(c2ccccc2Cl)CCCCC1=O [esketamine HCl, (S)-2-(2-chlorophenyl)-2-(methylamino)cyclohexanone hydrochloride]
- solubility ([4]; aqueous solution): 207 mg/mL
- Maximum solubility expressed as esketamine base ([4]; room temperature, pH 4.5, factor 1.15): 180 mg esketamine base/mL
- solubility ([4]; water): 180 mg/mL
